# Test results: the kinase profiling compilation of Christmann-Franck et al. (2016)
# How the values were obtained:
# Assay in all cases: radiometric filter-binding kinase assay
# [1] = biological target: BTK (human) (UniProt Q06187)
# [2] = biological target: CDK2 CCNA2 (human) (UniProt P20248+P24941)
# [3] = biological target: CHEK1 (human) (UniProt O14757)
# [4] = biological target: CSNK2A1 (human) (UniProt P68400)
# [5] = biological target: DAPK1 (human) (UniProt P53355)
# [6] = biological target: EEF2K (human) (UniProt O00418)
# [7] = biological target: EPHA4 (human) (UniProt P54764); conditions: compound 1.0 µM
# [8] = biological target: EPHB1 (human) (UniProt P54762)
# [9] = biological target: EPHB4 (human) (UniProt P54760)
# [10] = biological target: GCK (human) (UniProt Q12851)
# [11] = biological target: IKBKB (human) (UniProt O14920)
# [12] = biological target: INSRR (human) (UniProt P14616)
# [13] = biological target: MAP2K1 (human) (UniProt Q02750)
# MAP2K1 (human), sequence (Q02750 whole entry, looked up): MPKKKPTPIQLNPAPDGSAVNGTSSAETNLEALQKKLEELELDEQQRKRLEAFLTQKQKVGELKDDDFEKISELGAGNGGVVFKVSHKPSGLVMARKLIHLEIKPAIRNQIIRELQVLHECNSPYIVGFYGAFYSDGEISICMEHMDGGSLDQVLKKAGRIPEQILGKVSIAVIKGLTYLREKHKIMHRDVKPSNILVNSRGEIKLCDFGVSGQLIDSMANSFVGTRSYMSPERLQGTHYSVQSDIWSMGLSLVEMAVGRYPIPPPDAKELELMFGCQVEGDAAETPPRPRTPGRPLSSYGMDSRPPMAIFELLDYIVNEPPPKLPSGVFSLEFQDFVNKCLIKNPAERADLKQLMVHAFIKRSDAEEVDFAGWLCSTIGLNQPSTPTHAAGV
# [14] = biological target: MAP2K2 (human) (UniProt P36507); conditions: compound 0.1 µM
# [15] = biological target: MAP3K5 (human) (UniProt Q99683)
# [16] = biological target: MAP3K9 (human) (UniProt P80192)
# MAP3K9 (human), sequence (P80192 whole entry, looked up): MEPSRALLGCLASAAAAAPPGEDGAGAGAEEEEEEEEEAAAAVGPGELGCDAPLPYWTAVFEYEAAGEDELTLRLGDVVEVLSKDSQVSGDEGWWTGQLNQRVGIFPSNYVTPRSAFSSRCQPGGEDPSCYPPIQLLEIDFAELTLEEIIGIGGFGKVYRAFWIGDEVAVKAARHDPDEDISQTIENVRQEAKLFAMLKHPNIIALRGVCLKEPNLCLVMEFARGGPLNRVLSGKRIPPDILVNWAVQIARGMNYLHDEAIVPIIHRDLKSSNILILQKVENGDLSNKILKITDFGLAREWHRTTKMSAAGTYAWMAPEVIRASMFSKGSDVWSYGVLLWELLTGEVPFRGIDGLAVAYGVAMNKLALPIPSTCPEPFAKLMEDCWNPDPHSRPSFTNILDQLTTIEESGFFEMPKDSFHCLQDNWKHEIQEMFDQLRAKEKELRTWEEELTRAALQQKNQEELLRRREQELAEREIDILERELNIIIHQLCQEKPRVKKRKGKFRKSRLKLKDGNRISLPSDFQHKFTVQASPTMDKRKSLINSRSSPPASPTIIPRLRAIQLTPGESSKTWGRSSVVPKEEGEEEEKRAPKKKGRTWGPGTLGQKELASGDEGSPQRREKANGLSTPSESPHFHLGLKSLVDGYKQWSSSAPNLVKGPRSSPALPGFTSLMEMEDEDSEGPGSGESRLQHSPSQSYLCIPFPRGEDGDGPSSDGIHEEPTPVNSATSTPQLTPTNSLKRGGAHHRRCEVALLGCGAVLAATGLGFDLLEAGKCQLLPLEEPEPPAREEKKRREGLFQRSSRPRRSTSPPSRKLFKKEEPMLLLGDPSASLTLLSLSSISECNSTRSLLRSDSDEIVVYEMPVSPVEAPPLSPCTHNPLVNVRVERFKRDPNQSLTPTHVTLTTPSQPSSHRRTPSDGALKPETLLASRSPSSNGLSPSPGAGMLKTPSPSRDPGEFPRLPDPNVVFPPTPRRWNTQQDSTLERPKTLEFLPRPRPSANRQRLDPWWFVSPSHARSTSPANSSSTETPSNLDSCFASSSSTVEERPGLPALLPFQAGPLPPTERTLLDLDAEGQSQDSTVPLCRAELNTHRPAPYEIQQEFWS
# [17] = biological target: MAPK9 (human) (UniProt P45984)
# [18] = biological target: MAPKAPK2 (human) (UniProt P49137)
# [19] = biological target: MARK3 (human) (UniProt P27448)
# [20] = biological target: MARK4 (human) (UniProt Q96L34)
# [21] = biological target: MKNK2 (human) (UniProt Q9HBH9)
# [22] = biological target: MYLK (human) (UniProt Q15746)
# MYLK (human), sequence (Q15746 whole entry, looked up): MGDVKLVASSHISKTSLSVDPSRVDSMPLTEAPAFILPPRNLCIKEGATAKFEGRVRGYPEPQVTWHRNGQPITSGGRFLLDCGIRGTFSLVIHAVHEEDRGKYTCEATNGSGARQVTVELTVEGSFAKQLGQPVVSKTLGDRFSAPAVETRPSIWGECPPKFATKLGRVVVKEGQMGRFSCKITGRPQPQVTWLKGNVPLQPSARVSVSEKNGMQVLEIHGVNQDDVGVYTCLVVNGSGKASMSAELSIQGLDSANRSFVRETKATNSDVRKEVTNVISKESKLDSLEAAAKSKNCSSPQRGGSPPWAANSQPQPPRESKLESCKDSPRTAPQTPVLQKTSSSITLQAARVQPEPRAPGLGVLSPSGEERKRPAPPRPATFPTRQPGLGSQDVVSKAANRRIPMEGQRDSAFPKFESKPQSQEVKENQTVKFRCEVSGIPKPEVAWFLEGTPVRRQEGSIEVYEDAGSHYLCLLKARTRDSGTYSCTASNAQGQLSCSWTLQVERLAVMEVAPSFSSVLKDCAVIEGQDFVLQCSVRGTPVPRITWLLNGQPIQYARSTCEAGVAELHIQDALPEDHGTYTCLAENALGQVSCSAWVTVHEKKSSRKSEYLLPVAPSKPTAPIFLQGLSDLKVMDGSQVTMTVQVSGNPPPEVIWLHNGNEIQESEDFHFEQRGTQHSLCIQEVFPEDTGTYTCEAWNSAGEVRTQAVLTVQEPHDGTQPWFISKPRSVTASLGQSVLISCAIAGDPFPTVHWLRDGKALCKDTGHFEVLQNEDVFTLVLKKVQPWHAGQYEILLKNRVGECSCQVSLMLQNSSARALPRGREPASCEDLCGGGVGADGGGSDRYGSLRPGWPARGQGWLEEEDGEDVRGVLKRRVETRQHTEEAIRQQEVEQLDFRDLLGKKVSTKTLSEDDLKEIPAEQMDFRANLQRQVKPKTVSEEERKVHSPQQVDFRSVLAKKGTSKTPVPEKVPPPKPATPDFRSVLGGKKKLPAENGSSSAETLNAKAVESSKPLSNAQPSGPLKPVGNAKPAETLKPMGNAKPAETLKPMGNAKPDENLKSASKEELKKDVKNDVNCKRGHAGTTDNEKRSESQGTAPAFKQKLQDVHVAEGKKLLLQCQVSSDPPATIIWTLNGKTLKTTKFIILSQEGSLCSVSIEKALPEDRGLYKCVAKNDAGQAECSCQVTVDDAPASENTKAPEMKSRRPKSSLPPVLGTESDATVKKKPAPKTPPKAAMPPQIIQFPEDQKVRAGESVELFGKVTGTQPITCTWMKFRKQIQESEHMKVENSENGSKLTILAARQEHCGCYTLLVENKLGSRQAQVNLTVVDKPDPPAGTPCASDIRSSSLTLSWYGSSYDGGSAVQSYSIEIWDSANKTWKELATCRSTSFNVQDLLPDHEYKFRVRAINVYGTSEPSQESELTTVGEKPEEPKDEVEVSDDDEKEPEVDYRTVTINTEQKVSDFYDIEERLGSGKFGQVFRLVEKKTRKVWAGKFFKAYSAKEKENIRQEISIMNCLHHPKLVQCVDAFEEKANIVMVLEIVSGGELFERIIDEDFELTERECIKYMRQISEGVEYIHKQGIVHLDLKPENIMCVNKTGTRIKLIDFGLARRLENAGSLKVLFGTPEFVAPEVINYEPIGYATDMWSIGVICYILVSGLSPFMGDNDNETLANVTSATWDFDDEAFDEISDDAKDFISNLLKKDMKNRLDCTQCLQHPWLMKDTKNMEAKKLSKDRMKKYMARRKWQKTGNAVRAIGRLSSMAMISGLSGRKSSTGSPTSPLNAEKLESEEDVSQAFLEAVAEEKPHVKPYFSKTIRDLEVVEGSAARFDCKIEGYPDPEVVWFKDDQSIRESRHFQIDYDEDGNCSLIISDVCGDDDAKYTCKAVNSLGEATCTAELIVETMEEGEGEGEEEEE
# [23] = biological target: NEK6 (human) (UniProt Q9HC98)
# NEK6 (human), sequence (Q9HC98 whole entry, looked up): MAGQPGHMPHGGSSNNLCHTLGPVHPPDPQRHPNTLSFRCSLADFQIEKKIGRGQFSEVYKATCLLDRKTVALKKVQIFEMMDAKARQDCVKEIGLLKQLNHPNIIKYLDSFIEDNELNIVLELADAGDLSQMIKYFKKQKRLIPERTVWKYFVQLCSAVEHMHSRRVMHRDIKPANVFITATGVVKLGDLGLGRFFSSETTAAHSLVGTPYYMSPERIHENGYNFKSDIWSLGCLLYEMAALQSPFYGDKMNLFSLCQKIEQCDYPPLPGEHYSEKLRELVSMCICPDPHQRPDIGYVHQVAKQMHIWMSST
# [24] = test system: PAK2 (human), Q13177 [T402E]
# [25] = biological target: PAK6 (human) (UniProt Q9NQU5)
# [26] = biological target: PIM1 (human) (UniProt P11309)
# [27] = biological target: PIM2 (human) (UniProt Q9P1W9)
# [28] = biological target: PIM3 (human) (UniProt Q86V86)
# [29] = biological target: PKN2 (human) (UniProt Q16513)
# [30] = biological target: RPS6KA5 KD1 KD2 (human) (UniProt O75582)
# [31] = test system: RPS6KB1 (human), P23443 [T412E]
# [32] = biological target: SRPK1 (human) (UniProt Q96SB4)
# [33] = biological target: STK3 (human) (UniProt Q13188)
# STK3 (human), sequence (Q13188 whole entry, looked up): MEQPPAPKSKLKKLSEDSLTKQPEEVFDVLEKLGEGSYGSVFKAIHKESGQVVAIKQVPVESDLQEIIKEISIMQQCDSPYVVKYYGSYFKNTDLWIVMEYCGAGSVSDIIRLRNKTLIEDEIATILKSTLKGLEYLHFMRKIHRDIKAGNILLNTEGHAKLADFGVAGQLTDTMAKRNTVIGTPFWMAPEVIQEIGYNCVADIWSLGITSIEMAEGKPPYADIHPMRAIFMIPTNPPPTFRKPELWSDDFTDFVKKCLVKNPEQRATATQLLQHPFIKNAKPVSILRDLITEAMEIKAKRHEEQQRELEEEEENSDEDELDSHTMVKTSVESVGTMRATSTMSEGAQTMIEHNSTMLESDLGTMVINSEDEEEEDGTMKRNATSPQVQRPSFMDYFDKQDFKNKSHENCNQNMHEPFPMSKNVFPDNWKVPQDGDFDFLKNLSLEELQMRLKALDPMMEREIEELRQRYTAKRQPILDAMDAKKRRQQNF
# [34] = biological target: TBK1 (human) (UniProt Q9UHD2)
# [35] = biological target: TTK (human) (UniProt P33981)
# [36] = biological target: YES1 (human) (UniProt P07947)
# CHEK1 (human), sequence (O14757 whole entry, looked up): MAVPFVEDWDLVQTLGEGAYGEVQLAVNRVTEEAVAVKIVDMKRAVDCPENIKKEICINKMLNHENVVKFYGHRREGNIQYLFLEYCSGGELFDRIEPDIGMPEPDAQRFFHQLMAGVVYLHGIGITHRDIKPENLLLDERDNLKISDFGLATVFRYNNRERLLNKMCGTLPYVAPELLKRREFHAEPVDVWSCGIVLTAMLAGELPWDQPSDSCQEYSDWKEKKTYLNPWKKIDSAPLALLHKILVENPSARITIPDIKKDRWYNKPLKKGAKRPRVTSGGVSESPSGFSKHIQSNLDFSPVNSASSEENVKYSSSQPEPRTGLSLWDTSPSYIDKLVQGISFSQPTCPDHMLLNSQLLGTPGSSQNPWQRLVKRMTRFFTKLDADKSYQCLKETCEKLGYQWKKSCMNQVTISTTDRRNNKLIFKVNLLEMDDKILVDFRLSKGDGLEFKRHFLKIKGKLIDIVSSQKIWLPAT
smiles,measurement,setting,value
CCn1c(-c2nonc2N)nc2cncc(CNC3CCNCC3)c21,residual activity,[1]; compound 0.1 µM,92%
same,residual activity,[1]; compound 1.0 µM,93%
same,residual activity,[1]; compound 10.0 µM,112%
same,residual activity,[2]; compound 0.1 µM,83%
same,residual activity,[2]; compound 1.0 µM,81%
same,residual activity,[2]; compound 10.0 µM,56%
same,residual activity,[3]; compound 0.1 µM,89%
same,residual activity,[3]; compound 1.0 µM,88%
same,residual activity,[3]; compound 10.0 µM,53%
same,residual activity,[4]; compound 0.1 µM,71%
same,residual activity,[4]; compound 1.0 µM,74%
same,residual activity,[4]; compound 10.0 µM,86%
same,residual activity,[5]; compound 0.1 µM,111%
same,residual activity,[5]; compound 1.0 µM,84%
same,residual activity,[5]; compound 10.0 µM,35%
same,residual activity,[6]; compound 0.1 µM,118%
same,residual activity,[6]; compound 10.0 µM,117%
same,residual activity,[7],109%
same,residual activity,[8]; compound 0.1 µM,92%
same,residual activity,[8]; compound 1.0 µM,99%
same,residual activity,[8]; compound 10.0 µM,82%
same,residual activity,[9]; compound 0.1 µM,105%
same,residual activity,[9]; compound 1.0 µM,105%
same,residual activity,[9]; compound 10.0 µM,94%
same,residual activity,[10]; compound 0.1 µM,91%
same,residual activity,[10]; compound 1.0 µM,94%
same,residual activity,[10]; compound 10.0 µM,71%
same,residual activity,[11]; compound 0.1 µM,98%
same,residual activity,[11]; compound 1.0 µM,97%
same,residual activity,[11]; compound 10.0 µM,100%
same,residual activity,[12]; compound 0.1 µM,71%
same,residual activity,[12]; compound 1.0 µM,49%
same,residual activity,[12]; compound 10.0 µM,21%
same,residual activity,[13]; compound 0.1 µM,85%
same,residual activity,[13]; compound 1.0 µM,103%
same,residual activity,[13]; compound 10.0 µM,78%
same,residual activity,[14],98%
same,residual activity,[15]; compound 0.1 µM,100%
same,residual activity,[15]; compound 1.0 µM,97%
same,residual activity,[15]; compound 10.0 µM,97%
same,residual activity,[16]; compound 0.1 µM,105%
same,residual activity,[16]; compound 1.0 µM,104%
same,residual activity,[16]; compound 10.0 µM,99%
same,residual activity,[17]; compound 0.1 µM,109%
same,residual activity,[17]; compound 1.0 µM,103%
same,residual activity,[17]; compound 10.0 µM,95%
same,residual activity,[18]; compound 0.1 µM,112%
same,residual activity,[18]; compound 1.0 µM,104%
same,residual activity,[18]; compound 10.0 µM,102%
same,residual activity,[19]; compound 0.1 µM,88%
same,residual activity,[19]; compound 1.0 µM,87%
same,residual activity,[19]; compound 10.0 µM,56%
same,residual activity,[20]; compound 0.1 µM,91%
same,residual activity,[20]; compound 1.0 µM,103%
same,residual activity,[20]; compound 10.0 µM,81%
same,residual activity,[21]; compound 0.1 µM,110%
same,residual activity,[21]; compound 1.0 µM,116%
same,residual activity,[21]; compound 10.0 µM,77%
same,residual activity,[22]; compound 0.1 µM,104%
same,residual activity,[22]; compound 1.0 µM,110%
same,residual activity,[22]; compound 10.0 µM,70%
same,residual activity,[23]; compound 0.1 µM,103%
same,residual activity,[23]; compound 1.0 µM,101%
same,residual activity,[23]; compound 10.0 µM,102%
same,residual activity,[24]; compound 0.1 µM,99%
same,residual activity,[24]; compound 1.0 µM,93%
same,residual activity,[24]; compound 10.0 µM,90%
same,residual activity,[25]; compound 0.1 µM,103%
same,residual activity,[25]; compound 1.0 µM,94%
same,residual activity,[25]; compound 10.0 µM,93%
same,residual activity,[26]; compound 0.1 µM,94%
same,residual activity,[26]; compound 1.0 µM,35%
same,residual activity,[26]; compound 10.0 µM,7%
same,residual activity,[27]; compound 1.0 µM,110%
same,residual activity,[27]; compound 10.0 µM,69%
same,residual activity,[28]; compound 0.1 µM,76%
same,residual activity,[28]; compound 1.0 µM,36%
same,residual activity,[28]; compound 10.0 µM,13%
same,residual activity,[29]; compound 0.1 µM,31%
same,residual activity,[29]; compound 1.0 µM,12%
same,residual activity,[29]; compound 10.0 µM,7%
same,residual activity,[30]; compound 0.1 µM,22%
same,residual activity,[30]; compound 1.0 µM,5%
same,residual activity,[30]; compound 10.0 µM,1%
same,residual activity,[31]; compound 0.1 µM,16%
same,residual activity,[31]; compound 1.0 µM,5%
same,residual activity,[31]; compound 10.0 µM,4%
same,residual activity,[32]; compound 0.1 µM,94%
same,residual activity,[32]; compound 1.0 µM,99%
same,residual activity,[32]; compound 10.0 µM,86%
same,residual activity,[33]; compound 0.1 µM,106%
same,residual activity,[33]; compound 1.0 µM,97%
same,residual activity,[33]; compound 10.0 µM,71%
same,residual activity,[34]; compound 0.1 µM,88%
same,residual activity,[34]; compound 1.0 µM,93%
same,residual activity,[34]; compound 10.0 µM,78%
same,residual activity,[35]; compound 0.1 µM,83%
same,residual activity,[35]; compound 1.0 µM,84%
same,residual activity,[35]; compound 10.0 µM,65%
same,residual activity,[36]; compound 0.1 µM,108%
same,residual activity,[36]; compound 1.0 µM,98%
same,residual activity,[36]; compound 10.0 µM,86%
